Measurements from US20250163104A1, “MACROCYCLIC IMMUNOMODULATORS” (priority 2021, published 2025).
*1 amine or outer side, *2 acyl side, *3 side chain or, on linkers, in order; H or OH if unused. Where a SMILES comes first, the peptide text is derived from it. Bridges are numbered along the chain shown (N, C = ends). [ ]: non-standard residue; d: D form. The star is where a group is joined. Phe(3-CF3) = N[C@@H](Cc1cccc(C(F)(F)F)c1)C(=O)O; Ala(morpholin-4-yl) = N[C@@H](CN1CCOCC1)C(=O)O; Phe(4-COOH) = N[C@@H](Cc1ccc(C(=O)O)cc1)C(=O)O; X5 = O=C([C@H](Cc1ccc2ncccc2c1)N[*:1])[*:2]; Asp(3,3-Me2) = CC(C)(C(=O)O)[C@H](N)C(=O)O; Bip = N[C@@H](Cc1ccc(-c2ccccc2)cc1)C(=O)O; Phe(3-Me) = Cc1cccc(C[C@H](N)C(=O)O)c1; Phe(4-F) = N[C@@H](Cc1ccc(F)cc1)C(=O)O; Phe(2-F) = N[C@@H](Cc1ccccc1F)C(=O)O; Gly(octyl) = CCCCCCCC[C@H](N)C(=O)O; Val(3-OH) = CC(C)(O)[C@H](N)C(=O)O; Aha = [N-]=[N+]=NCC[C@H](N)C(=O)O; aIle = CC[C@@H](C)[C@H](N)C(=O)O; 4Pal = N[C@@H](Cc1ccncc1)C(=O)O; Cha = N[C@@H](CC1CCCCC1)C(=O)O; Cit = NC(=O)NCCC[C@H](N)C(=O)O; Carboxymethyl = O=C(O)C*; Orn = NCCC[C@H](N)C(=O)O; Dab = NCC[C@H](N)C(=O)O; Dap = NC[C@H](N)C(=O)O; Piv = CC(C)(C)C(=O)*; Propargyl = C#CC*

Molecular target: T1, human PD-1 / PD-L1-Ig binding on Jurkat cell line over-expressing human PD-1 (Jurkat-PD-1) (Homo sapiens, UniProt Q15116)
T1 construct: expressed in transfected cells; host or cells: Jurkat
Assay: Jurkat-PD-1 Cell Binding High-Content Screening Assay (CBA)
Assay type: cell-based
Conditions: Jurkat-PD-1 cells, PE-labeled PD-L1-Ig 20 nM final; read-out: Jurkat HPD1_PDL1 IC50
How it was run: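 Cell-bound PE-labeled PD-L1-Ig (20 nM final, 1 h) measured by high-content imaging after fixation and Hoechst 33342 counterstain. Compound was applied first for 2 h at 37° C. to Jurkat cells over-expressing human PD-1 in DMEM with 10% FCS.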

T1 sequence (Q15116 25-288): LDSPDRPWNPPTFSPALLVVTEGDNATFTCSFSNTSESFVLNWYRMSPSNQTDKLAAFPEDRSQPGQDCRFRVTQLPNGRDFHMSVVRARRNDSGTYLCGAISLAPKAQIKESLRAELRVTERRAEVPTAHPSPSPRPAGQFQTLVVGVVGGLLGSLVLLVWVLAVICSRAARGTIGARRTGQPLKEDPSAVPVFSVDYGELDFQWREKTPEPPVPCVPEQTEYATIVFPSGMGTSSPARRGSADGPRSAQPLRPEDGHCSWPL

| SMILES | IC50 [nM] |
| --- | --- |
| Cc1cccc(C[C@@H]2NC(=O)[C@H](CC(=O)O)NC(=O)[C@H](Cc3ccc(OCC(=O)O)cc3)NC(=O)[C@H](CCN)NC(=O)CSC[C@@H](C(=O)N[C@@H](CCN)C(N)=O)NC(=O)[C@H](CO)NC(=O)[C@H](C(C)(C)O)NC(=O)[C@H](CC3CCCCC3)NC(=O)[C@H](CCN)NC(=O)[C@@H](CC(C)C)NC(=O)[C@H](C(C)(C)C(=O)O)NC(=O)[C@H](Cc3ccc(OCC(=O)O)cc3)NC(=O)[C@H](Cc3ccc(-c4ccccc4)cc3)NC(=O)[C@H](Cc3ccc(OCC(=O)O)cc3)NC2=O)c1 [Compound 2073] ({CH2CO}-[Dab]Y(Carboxymethyl)D[Phe(3-Me)]Y(Carboxymethyl)[Bip]Y(Carboxymethyl)[Asp(3,3-Me2)][dL][Dab][Cha][Val(3-OH)]SC[Dab]-NH2; thioether N-14) | 22.2 |
| CC(C)C[C@H]1NC(=O)[C@H](CCCN)NC(=O)[C@H](C(C)C)NC(=O)[C@H](Cc2ccc(-c3ccccc3)cc2)NC(=O)[C@H](C(C)C)NC(=O)[C@H](Cc2c[nH]c3ccccc23)NC(=O)[C@H](CC(=O)O)NC(=O)[C@H](Cc2ccc(OCC(=O)O)cc2)NC(=O)[C@@H]2CC(N)CN2C(=O)CSC[C@@H](C(=O)N[C@@H](C)C(N)=O)NC(=O)[C@H](C(C)O)NC(=O)[C@H](C(C)C)NC(=O)[C@H](CC2CCCCC2)NC(=O)[C@H](CCN)NC1=O (some centres unmarked) [Compound 2523] | 9.6 |
| C#CCOc1ccc(C[C@@H]2NC(=O)[C@H](CN)NC(=O)CSC[C@@H](C(=O)N[C@@H](CCN=[N+]=[N-])C(N)=O)NC(=O)[C@H]([C@@H](C)O)NC(=O)[C@H](C(C)C)NC(=O)[C@H](CC3CCCCC3)NC(=O)[C@H](CCN)NC(=O)[C@@H](CC(C)C)NC(=O)[C@H](CCCN)NC(=O)[C@H](CCC(=O)O)NC(=O)[C@H](Cc3ccc(-c4ccccc4)cc3)NC(=O)[C@H](C(C)C)NC(=O)[C@H](Cc3c[nH]c4ccccc34)NC(=O)[C@H](CC(=O)O)NC2=O)cc1 [Compound 1536] ({CH2CO}-[Dap]Y(Propargyl)DWV[Bip]E[Orn][dL][Dab][Cha]VTC[Aha]-NH2; thioether N-14) | 59.3 |
| Cc1cccc(C[C@@H]2NC(=O)[C@H](CC(=O)O)NC(=O)[C@H](Cc3ccc(OCC(=O)O)cc3)NC(=O)[C@H](Cc3ccncc3)NC(=O)CSC[C@@H](C(=O)N[C@@H](CCNC(=O)C(C)(C)C)C(N)=O)NC(=O)[C@H]([C@@H](C)O)NC(=O)[C@H](C(C)C)NC(=O)[C@H](CC3CCCCC3)NC(=O)[C@H](CCN)NC(=O)[C@@H](CC(C)C)NC(=O)[C@H](CCN)NC(=O)[C@H](Cc3ccc(OCC(=O)O)cc3)NC(=O)[C@H](Cc3ccc(-c4ccccc4)cc3)NC(=O)[C@H](Cc3ccc(OCC(=O)O)cc3)NC2=O)c1 [Compound 2060] ({CH2CO}-[4Pal]Y(Carboxymethyl)D[Phe(3-Me)]Y(Carboxymethyl)[Bip]Y(Carboxymethyl)[Dab][dL][Dab][Cha]VTC[Dab](Piv)-NH2; thioether N-14) | 19.3 |
| COc1ccc(C[C@@H]2NC(=O)[C@H](CN)NC(=O)CSC[C@@H](C(=O)N[C@@H](C)C(N)=O)NC(=O)[C@H]([C@@H](C)O)NC(=O)[C@H](C(C)C)NC(=O)[C@H](CC3CCCCC3)NC(=O)[C@H](CCN)NC(=O)[C@@H](CC(C)C)NC(=O)[C@H](CCCN)NC(=O)[C@H](CCCNC(N)=O)NC(=O)[C@H](Cc3ccc(-c4ccccc4)cc3)NC(=O)[C@H](C(C)C)NC(=O)[C@H](Cc3c[nH]c4ccccc34)NC(=O)[C@H](CC(=O)O)NC2=O)cc1 [Compound 2112] | 18 |
| Cc1cccc(C[C@@H]2NC(=O)[C@H](CC(=O)O)NC(=O)[C@H](Cc3ccc(OCC(=O)O)cc3)NC(=O)[C@H](CN)NC(=O)CSC[C@@H](C(N)=O)NC(=O)[C@H](CC(=O)O)NC(=O)[C@H](C(C)C)NC(=O)[C@H](CC3CCCCC3)NC(=O)[C@H](CCN)NC(=O)[C@@H](CC(C)C)NC(=O)[C@H](CCCN)NC(=O)[C@H](Cc3ccc(OCC(=O)O)cc3)NC(=O)[C@H](Cc3ccc(-c4ccccc4)cc3)NC(=O)[C@H](Cc3ccc(OCC(=O)O)cc3)NC2=O)c1 [Compound 1781] ({CH2CO}-[Dap]Y(Carboxymethyl)D[Phe(3-Me)]Y(Carboxymethyl)[Bip]Y(Carboxymethyl)[Orn][dL][Dab][Cha]VDC-NH2; thioether N-14) | 14.2 |
| CC(C)C[C@H]1NC(=O)[C@H](CCCN)NC(=O)[C@H](CCCNC(N)=O)NC(=O)[C@H](Cc2ccc(-c3ccccc3)cc2)NC(=O)[C@H](C(C)C)NC(=O)[C@H](Cc2c[nH]c3ccccc23)NC(=O)[C@H](CC(=O)O)NC(=O)[C@H](Cc2ccc(O)cc2)NC(=O)[C@H](Cc2ccc(OCC(=O)O)cc2)NC(=O)CSC[C@@H](C(=O)N[C@@H](C)C(N)=O)NC(=O)[C@H]([C@@H](C)O)NC(=O)[C@H](C(C)C)NC(=O)[C@H](CC2CCCCC2)NC(=O)[C@H](CCCNC(=N)N)NC1=O [Compound 1154] ({CH2CO}-Y(Carboxymethyl)YDWV[Bip][Cit][Orn][dL]R[Cha]VTCA-NH2; thioether N-14) | 9.2 |
| CCCCCCCC[C@@H]1NC(=O)[C@H](CCN)NC(=O)[C@@H](CC(C)C)NC(=O)[C@H](CCCN)NC(=O)[C@H](CCCNC(N)=O)NC(=O)[C@H](Cc2ccc(-c3ccccc3)cc2)NC(=O)[C@H](C(C)C)NC(=O)[C@H](Cc2c[nH]c3ccccc23)NC(=O)[C@H](CC(=O)O)NC(=O)[C@H](Cc2ccc(OCC(=O)O)cc2)NC(=O)[C@H](CN)NC(=O)CSC[C@@H](C(=O)N[C@@H](C)C(N)=O)NC(=O)[C@H]([C@@H](C)O)NC(=O)[C@H](C(C)C)NC1=O [Compound 1352] ({CH2CO}-[Dap]Y(Carboxymethyl)DWV[Bip][Cit][Orn][dL][Dab][Gly(octyl)]VTCA-NH2; thioether N-14) | 110 |
| Cc1cccc(C[C@@H]2NC(=O)[C@H](CC(=O)O)NC(=O)[C@H](Cc3ccc(C(=O)O)cc3)NC(=O)[C@H](Cc3ccncc3)NC(=O)CSC[C@@H](C(=O)N[C@@H](CC(N)=O)C(N)=O)NC(=O)[C@H](CO)NC(=O)[C@H](C(C)C)NC(=O)[C@H](CC3CCCCC3)NC(=O)[C@H](CCN)NC(=O)[C@@H](CC(C)C)NC(=O)[C@H](CCCN)NC(=O)[C@H](Cc3ccc(OCC(=O)O)cc3)NC(=O)[C@H](Cc3ccc(-c4ccccc4)cc3)NC(=O)[C@H](Cc3ccc(OCC(=O)O)cc3)NC2=O)c1 [Compound 2303] ({CH2CO}-[4Pal][Phe(4-COOH)]D[Phe(3-Me)]Y(Carboxymethyl)[Bip]Y(Carboxymethyl)[Orn][dL][Dab][Cha]VSCN-NH2; thioether N-14) | 5.3 |
| CC(C)C[C@H]1NC(=O)[C@H](CCCN)NC(=O)[C@H](CCC(=O)O)NC(=O)[C@H](Cc2ccc(-c3ccccc3)cc2)NC(=O)[C@H](C(C)C)NC(=O)[C@H](Cc2ccccc2F)NC(=O)[C@H](CC(=O)O)NC(=O)[C@H](Cc2ccncc2)NC(=O)[C@H](Cc2ccc(OCC(=O)O)cc2)NC(=O)CSC[C@@H](C(=O)N[C@@H](C)C(N)=O)NC(=O)[C@H]([C@@H](C)O)NC(=O)[C@H](C(C)C)NC(=O)[C@H](CC2CCCCC2)NC(=O)[C@H](CCN)NC1=O [Compound 2210] ({CH2CO}-Y(Carboxymethyl)[4Pal]D[Phe(2-F)]V[Bip]E[Orn][dL][Dab][Cha]VTCA-NH2; thioether N-14) | 25.1 |
| CC(C)C[C@H]1NC(=O)[C@H](CCCN)NC(=O)[C@H](Cc2ccc(C(=O)O)cc2)NC(=O)[C@H](Cc2ccc(-c3ccccc3)cc2)NC(=O)[C@H](Cc2ccc3ncccc3c2)NC(=O)[C@H](Cc2cccc(C(F)(F)F)c2)NC(=O)[C@H](CC(=O)O)NC(=O)[C@H](Cc2ccc(C(=O)O)cc2)NC(=O)[C@H](CN2CCOCC2)NC(=O)CSC[C@@H](C(=O)N[C@@H](CCN)C(N)=O)NC(=O)[C@H](CCC(=O)O)NC(=O)[C@H](C(C)C)NC(=O)[C@H](CC2CCCCC2)NC(=O)[C@H](CCN)NC1=O [Example 2741] ({CH2CO}-[Ala(morpholin-4-yl)][Phe(4-COOH)]D[Phe(3-CF3)][X5][Bip][Phe(4-COOH)][Orn][dL][Dab][Cha]VEC[Dab]-NH2; thioether N-14) | 2.3 |
| CC(C)C[C@H]1NC(=O)[C@H](CCCN)NC(=O)[C@H](CCCNC(N)=O)NC(=O)[C@H](Cc2ccc(-c3ccccc3)cc2)NC(=O)[C@H](C(C)C)NC(=O)[C@H](Cc2c[nH]c3ccccc23)NC(=O)[C@H](CC(=O)O)NC(=O)[C@H](Cc2ccc(OCC(=O)O)cc2)NC(=O)[C@H](CN)NC(=O)CSC[C@@H](C(=O)N[C@@H](C)C(N)=O)NC(=O)[C@H]([C@@H](C)O)NC(=O)[C@H](C(C)C)NC(=O)[C@H](Cc2ccc(F)cc2)NC(=O)[C@H](CCN)NC1=O [Compound 1367] ({CH2CO}-[Dap]Y(Carboxymethyl)DWV[Bip][Cit][Orn][dL][Dab][Phe(4-F)]VTCA-NH2; thioether N-14) | 21.7 |
| CC[C@H](C)[C@@H]1NC(=O)[C@H](Cc2ccc(-c3ccccc3)cc2)NC(=O)[C@H](C(C)C)NC(=O)[C@H](Cc2c[nH]c3ccccc23)NC(=O)[C@H](CC(=O)O)NC(=O)[C@H](Cc2ccc(O)cc2)NC(=O)[C@H](CC(N)=O)NC(=O)CSC[C@@H](C(=O)N[C@@H](C)C(N)=O)NC(=O)[C@H]([C@@H](C)O)NC(=O)[C@H](C(C)C)NC(=O)[C@H](CC(C)C)NC(=O)[C@H](CCN)NC(=O)[C@@H](CC(C)C)NC(=O)[C@H](CCCCN)NC1=O [Compound 1039] ({CH2CO}-NYDWV[Bip]IK[dL][Dab]LVTCA-NH2; thioether N-14) | 12.1 |
| CC[C@@H](C)[C@@H]1NC(=O)[C@H](Cc2ccc(-c3ccccc3)cc2)NC(=O)[C@H](C(C)C)NC(=O)[C@H](Cc2cccc(C)c2)NC(=O)[C@H](CC(=O)O)NC(=O)[C@H](Cc2ccc(O)cc2)NC(=O)[C@H](CC(N)=O)NC(=O)CSC[C@@H](C(N)=O)NC(=O)[C@H]([C@@H](C)O)NC(=O)[C@H](C(C)C)NC(=O)[C@H](CC(C)C)NC(=O)[C@H](CCN)NC(=O)[C@@H](CC(C)C)NC(=O)[C@H](CCCN)NC1=O [Compound 1657] ({CH2CO}-NYD[Phe(3-Me)]V[Bip][aIle][Orn][dL][Dab]LVTC-NH2; thioether N-14) | 59.9 |
